Results taken from patent US20200078404A1, “COMBINATION OF A CELL THERAPY AND AN IMMUNOMODULATORY COMPOUND” (Juno Therapeutics, Inc., priority 2017, published 2020).

Experiments:
[1] = system: anti-CD19 CAR-expressing T cells; assay: Serial stimulation with K562.CD19: surface markers; type: cell-based, human
Method: (§1) Every 3-4 days (start of each new round), the cells were counted.
Expression of select surface markers was assessed on cells at day 4 (i.e., 4 days after the first stimulation) and day 28 (i.e., 4 days after the seventh stimulation). Specifically, harvested cells were analyzed by flow cytometry for CD3, CD4, CD8 and the surrogate marker for CAR expression, and also for the following surface markers: CD69, CD107a, PD-1, CD25, CD62L, CCR7, CD45RO, CD27, and LAG3.

[2] = system: RPMI-8226; settings: read-out: sensitive to lenalidomide; cited from earlier work
[3] = system: anti-CD19 CAR-expressing T cells; assay: Cytokine production after anti-idiotypic antibody stimulation; settings: anti-idiotypic antibody 0.3-30 μg/ml, 24 hours; Compound 1 100, 1000 nM; lenalidomide 500, 5000 nM
[4] = system: K562.CD19 target cells; assay: Cytolytic function of anti-CD19 CAR-expressing T cells against K562.CD19 target cells; type: cell-based, human
Method: K562.CD19 target cells were transduced with NucLight Red to permit their tracking by microscopy. Cytolytic activity was assessed by measuring the loss of viable target cells over a period of five days, as determined by red fluorescent signal (using the IncuCyte® Live Cell Analysis System, Essen Bioscience).

[5] = system: OPM-2-luciferase tumor; assay: OPM-2 orthotopic xenograft mouse model, Study 2 (concurrent or delayed lenalidomide); type: in vivo
Method: In a further study, NOD/Scid/gc^−/− (NSG) mice were injected (i.v.) with OPM-2-luciferase cells as described in Study 1 above and allowed to engraft for 14 days prior to CAR-T (or mock) cell; infusion (i.v.).
At 14 days after tumor cell injection (day 0), a subtherapeutic dose of CAR+ T cells (1×10^6 CAR-T cells (generated from two different donors)) or mock control cells was injected intravenously. Data are presented as mean±SEM. For in vivo survival, a Gehan-Breslow-Wilcoxon test was used to compare groups.
FIG. 10E depicts the results of tumor burden assessment through day 60, as analyzed by the bioluminescence […]. […] P values were obtained by likelihood ratio tests comparing the full model with the effect of interest against the model without the effect of interest.
Blood from the treated mice was collected for CAR-T pharmacokinetic analysis, and cells were stained with antibodies to exclude mouse-specific cells (H2-kd, TER119, and muCD45) and analyzed by flow cytometry. Cells were gated on CD45+CD3+CAR+ and the cells per microliter of blood was determined. For pharmacokinetic measurements, each time point was analyzed by one-way ANOVA and Tukey post-hoc test. FIGS. 10G and 10H show the flow cytometric analysis of mock control cells and CAR-T cells in the blood of the mice at days 8, 14, 22, and 28 following injection of the CAR-T cells from two donors.

[6] = system: anti-BCMA CAR T cells with OPM-2; assay: Cytokine production of anti-BCMA CAR T cells co-cultured with OPM-2 with or without lenalidomide; type: cell-based, human
[7] = system: anti-BCMA CAR+ T cells; assay: 3-D reconstructed bone marrow (rBone) myeloma model with RPMI-8226; type: cell-based, human; settings: 1.0 μM lenalidomide
Text: To assess cell function in the context of a three-dimensional (3-D) human BCMA-expressing tissue microenvironment, a reconstructed bone marrow (rBone™) (z[…], San Jose, Calif.) was embedded with BCMA-expressing RPMI-8226.
After 2 or 7 days, cells were isolated and assessed by flow cytometry for surface expression of CD3, CD25, CD4, and CD8.

[8] = system: anti-CD19 CAR-expressing T cells; assay: Surface markers after anti-idiotypic antibody stimulation; type: cell-based, human
Text: CAR-expressing T cells were stained for CD3, CD4, CD8 and the surrogate marker for CAR expression, and also for the following markers: CD25, PD-1, and CD69.

[9] = system: K562.CD19 target cells; assay: Serial stimulation with K562.CD19: cytolytic function at day 24; type: cell-based, human; settings: day 24 after serial stimulation
Text: as §1

[10] = system: anti-CD19 CAR-expressing T cells; assay: T cell surface markers of anti-CD19 CAR-expressing T cells incubated with K562.CD19; type: cell-based, human; settings: all donors and E:T ratios
[11] = system: anti-BCMA CAR T cells; assay: Proliferation and expansion of anti-BCMA CAR T cells stimulated with BCMA-conjugated beads; type: cell-based, human; settings: 5 μM lenalidomide
Method: Cryofrozen anti-BCMA CAR T cells, produced substantially as described in Example 2 and formulated at a 1:1 ratio of CD4+ and CD8+ T cells, were thawed.
Total cell count, monitored at day 4 (FIG. 21E) and day 7 (FIG. 21F), was increased following stimulation of anti-BCMA CAR+ T cells with beads from a 50 μg/mL BCMA-conjugated bead composition, but not 5 μg/mL BCMA-conjugated bead composition, compared to the cells present at the time of initiation of the incubation (dashed line).
To further assess proliferation, the cells containing anti-BCMA CAR-expressing T cells were labeled with the proliferation marker dye CELLTRACE VIOLET (CTV; ThermoFisher Scientific, Waltham Mass.) in accordance with the manufacturer's protocol prior to incubation with the BCMA-conjugated beads. Proliferation was assessed by dye dilution using flow cytometry on cells that were stimulated with beads from the 50 μg/mL BCMA-conjugated bead composition.
Four days and seven days after addition of BCMA-conjugated beads, the incubated cells were stained with CD4 or CD8 and with an anti-EGFR antibody to determine the percentage of cells positive for EGFRt as a surrogate for CAR+ T cells. At the time of plating, 26% of the CD4+ cells expressed anti-BCMA CAR and 39% of the CD8+ cells expressed anti-BCMA CAR as determined by staining with BCMA-Fc. The percent of EGFRt+CD4+ T cells increased from about 26% at the initiation of the incubation to greater than 40% by day 4 (FIG. 21H) and greater than 60% by day 7 (FIG. 21I) when the cells were incubated in the presence of beads from a 50 μg/mL BCMA-conjugated bead composition. […] The extent of cell expansion was greatest when cells were incubated in the presence of beads from a 50 μg/mL BCMA-conjugated bead composition compared to beads from the 5 μg/mL BCMA-conjugated bead composition.

Nc1cccc2c1CN(C1CCC(=O)NC1=O)C2=O (centres unmarked) [lenalidomide, 3-(4-amino-1-oxo-1,3-dihydro-2H-isoindol-2-yl)piperidine-2,6-dione]
expression of CD28 ([1]; CD4+ and CD8+ CAR-expressing T cells, day 28, three donors): decreased in a dose-dependent manner | PD-1 expression ([1]; both E:T ratios, day 4 and day 28): downregulated to some degree in all donors | CD25 and LAG3 expression ([1]; day 4): upregulated across all three donors | CCR7 expression ([1]; day 28): generally decreased at day 28 | IC50 [2]: 6.43 µM | IFN-γ, IL-2 and TNF-α production [3]: increased relative to the vehicle control | cytolytic activity of anti-CD19 CAR-expressing cells ([4]; 2.5:1 E:T ratio, some donors): slightly reduced cytolytic activity | cytolytic activity of anti-CD19 CAR-expressing T cells ([4]; 5:1 E:T ratio, high concentrations, Donor 2, no effects with Donors 1 and 3): slight but consistent increase in cytolytic activity | cytolytic function of anti-CD19 CAR-expressing T cells ([4]; five days, three donors): limited effect on cytolytic function | tumor growth and tumor burden ([5]; added to subtherapeutic CAR+ T cells from both donors, through day 60): slower tumor growth and reduced tumor burden | CAR T counts in the peripheral blood ([5]; concurrent lenalidomide, after 7 days, not at later time points): increased CAR T counts in the peripheral blood | tumor burden ([5]; concurrent lenalidomide, donor 1, vs vehicle with anti-BCMA CAR T): significant decrease in tumor burden | survival ([5]; concurrent lenalidomide, donor 1 and donor 2): increased survival | cytokine production and/or accumulation (IFNγ, IL-2, TNF-α) ([6]; 0.01-10 μM lenalidomide, E:T 1:1, 24 hours, four donors): enhance cytokine production and/or accumulation by antigen-stimulated anti-BCMA CAR+ T cells in a dose-dependent manner | IFN-γ, IL-2 and TNF-α production ([6]; all CAR T donors, concentration-dependent): significantly increased IFN-γ, IL-2, and TNF-α production | cytokine production (IFNγ, IL-2) ([6]; healthy donor and multiple myeloma patient, E:T 1:1, 24 hours): increased by lenalidomide in a concentration-dependent manner | CD25+ expression in CD4+ and CD8+ T cell populations [7]: increase in CD25+ expression | total number of CD3+ cells ([7]; day 7): increase in total number of CD3+ cells | surface markers CD25 and CD69 ([8]; CD4+ and CD8+ CAR-expressing T cells, day 4, some donors): increase in surface markers CD25 and CD69 | expression of PD-1 ([8]; day 4, unchanged or decreased in the other donors): increased in the presence of Compound 1 or lenalidomide in cells generated from at least one donor | cytolytic activity of anti-CD19 CAR-expressing T cells [9]: increase the cytolytic activity | expression of CD27 [10]: downregulated in a concentration-dependent manner | expression of CD45RO [10]: increased | total cell count (proliferation) ([11]; 50 ug beads, day 7): small increase in proliferation | proliferation by CTV dilution ([11]; 50 μg/mL beads, day 4 but not day 7): slight delay in proliferation | extent of CAR+ T cell expansion (% EGFRt+) ([11]; day 4 and day 7): did not substantially impact the extent of CAR+ T cell expansion
